Patent US12545639B2, “3-substituted phenylamidine compounds, preparation and use thereof” (PI INDUSTRIES LTD., priority 2019, dated 2026)

Tests used:
Phakopsora pachyrhizi = Phakopsora pachyrhizi test in soybean, preventive, in vivo on plants; settings: in Glycine max, read-out: Efficacy (% control), disease severity compared to the untreated check
Fusarium culmorum = Fusarium culmorum (foot rot of cereals) in vitro test, radial growth on potato dextrose agar; format: cell-based; settings: 168 h, 300 ppm in potato dextrose agar, 25° C., 60% relative humidity, seven days, read-out: control compared to the untreated check (radial growth)
Description: Compounds were dissolved in 0.3% dimethyl sulfoxide and then added to potato dextrose agar medium just prior to dispensing it into petri dishes. 5 mL medium with the compound in the desired concentration was dispensed into 60 mm sterile petri-plates. After solidification each plate was seeded with a 5 mm size mycelial disc taken from the periphery of an actively growing virulent culture plate. Plates were incubated in growth chambers at 25° C. temperature and 60% relative humidity for seven days and then the radial growth was measured and compared to that of the untreated control.

Alternaria solani = Alternaria solani (early blight of tomato/potato) in vitro test, radial growth on potato dextrose agar; format: cell-based; settings: 168 h, 300 ppm in potato dextrose agar, 25° C., 60% relative humidity, seven days, read-out: control compared to the untreated check (radial growth)
Botrytis cinerea = Botrytis cinerea (gray mold) in vitro test, radial growth on potato dextrose agar; format: cell-based; settings: 168 h, 300 ppm in potato dextrose agar, 22° C., 90% relative humidity, seven days, read-out: control compared to the untreated check (radial growth)
Rhizoctonia solani = Rhizoctonia solani (rice sheath blight/potato black scurf) in vitro test, radial growth on potato dextrose agar; format: cell-based; settings: 168 h, 300 ppm in potato dextrose agar, 25° C., 60% relative humidity, seven days, read-out: control compared to the untreated check (radial growth)
Pyricularia oryzae = experiment: microbe, parasite or virus in culture; format: cell-based; settings: 168 h, read-out: control compared to the untreated check (radial growth)
[1] = system: Septoria lycopersici/Corynespora cassicola (CORYCA); experiment: Septoria lycopersici/Corynespora cassicola (CORYCA) (leaf spot of tomato) in vitro test, radial growth on potato dextrose agar; format: cell-based; settings: 168 h, 300 ppm in potato dextrose agar, 25° C., 70% relative humidity, seven days, read-out: control compared to the untreated check (radial growth)
Colletotrichum capsici = Colletotrichum capsici (anthracnose) in vitro test, radial growth on potato dextrose agar; format: cell-based; settings: Colletotrichum truncatum, 168 h; 300 ppm in potato dextrose agar; 25° C., 60% relative humidity, seven days; read-out: control compared to the untreated check (radial growth)

CCN(C)C=Nc1cc(Cl)cc(Cc2cc(C)c(F)c(C)c2)c1C [Compound 87, N′-(5-chloro-3-(4-fluoro-3,5-dimethylbenzyl)-2-methylphenyl)-N-ethyl-N-methylformimidamide]
≥ 70%: pest or weed control at 500 ppm (Phakopsora pachyrhizi) | inhibition of growth at 300 ppm (Fusarium culmorum) | inhibition of growth at 300 ppm (Alternaria solani) | inhibition of growth at 300 ppm (Botrytis cinerea) | inhibition of growth at 300 ppm (Rhizoctonia solani) | inhibition of growth at 300 ppm (Pyricularia oryzae)

CCN(C)C=Nc1cc(OC)cc(Cc2ccc(C(F)(F)F)cc2)c1C [Compound 295, N-ethyl-N′-(5-methoxy-2-methyl-3-(4-(trifluoromethyl)benzyl)phenyl)-N-methylformimidamide]
≥ 70%: pest or weed control at 500 ppm (Phakopsora pachyrhizi) | inhibition of growth at 300 ppm [1] | inhibition of growth at 300 ppm (Fusarium culmorum) | inhibition of growth at 300 ppm (Alternaria solani) | inhibition of growth at 300 ppm (Botrytis cinerea) | inhibition of growth at 300 ppm (Rhizoctonia solani) | inhibition of growth at 300 ppm (Pyricularia oryzae)

CCN(C)C=Nc1cc(F)cc(Cc2ccccc2Cl)c1C [Compound 142, N′-(3-(2-chlorobenzyl)-5-fluoro-2-methylphenyl)-N-ethyl-N-methylformimidamide]
≥ 70%: inhibition of growth at 300 ppm [1] | inhibition of growth at 300 ppm (Fusarium culmorum) | inhibition of growth at 300 ppm (Alternaria solani) | inhibition of growth at 300 ppm (Botrytis cinerea) | inhibition of growth at 300 ppm (Rhizoctonia solani) | inhibition of growth at 300 ppm (Pyricularia oryzae)

CCN(C)C=Nc1cc(OC)cc(Cc2cccc(Cl)c2)c1C [Compound 264, N′-(3-(3-chlorobenzyl)-5-methoxy-2-methylphenyl)-N-ethyl-N-methylformimidamide]
≥ 70%: pest or weed control at 500 ppm (Phakopsora pachyrhizi) | inhibition of growth at 300 ppm [1] | inhibition of growth at 300 ppm (Fusarium culmorum) | inhibition of growth at 300 ppm (Alternaria solani) | inhibition of growth at 300 ppm (Botrytis cinerea) | inhibition of growth at 300 ppm (Rhizoctonia solani) | inhibition of growth at 300 ppm (Pyricularia oryzae)

CCN(C)C=Nc1cc(OC)cc(Cc2ccccc2C(F)(F)F)c1C [Compound 307, N-ethyl-N′-(5-methoxy-2-methyl-3-(2-(trifluoromethyl)benzyl)phenyl)-N-methylformimidamide]
≥ 70%: inhibition of growth at 300 ppm [1] | inhibition of growth at 300 ppm (Fusarium culmorum) | inhibition of growth at 300 ppm (Alternaria solani) | inhibition of growth at 300 ppm (Botrytis cinerea) | inhibition of growth at 300 ppm (Rhizoctonia solani) | inhibition of growth at 300 ppm (Pyricularia oryzae)

CCN(C)C=Nc1cc(OC)cc(Cc2ccccc2C)c1C [Compound 262, N-ethyl-N′-(5-methoxy-2-methyl-3-(2-methylbenzyl)phenyl)-N-methylformimidamide]
≥ 70%: pest or weed control at 500 ppm (Phakopsora pachyrhizi) | inhibition of growth at 300 ppm [1] | inhibition of growth at 300 ppm (Fusarium culmorum) | inhibition of growth at 300 ppm (Alternaria solani) | inhibition of growth at 300 ppm (Botrytis cinerea) | inhibition of growth at 300 ppm (Rhizoctonia solani) | inhibition of growth at 300 ppm (Pyricularia oryzae)

CCN(C)C=Nc1cc(OC)cc(Cc2cc(C)cc(F)c2)c1C [Compound 292, N-ethyl-N′-(3-(3-fluoro-5-methylbenzyl)-5-methoxy-2-methylphenyl)-N-methylformimidamide]
≥ 70%: inhibition of growth at 300 ppm [1] | inhibition of growth at 300 ppm (Fusarium culmorum) | inhibition of growth at 300 ppm (Alternaria solani) | inhibition of growth at 300 ppm (Botrytis cinerea) | inhibition of growth at 300 ppm (Rhizoctonia solani) | inhibition of growth at 300 ppm (Pyricularia oryzae)

CCN(C)C=Nc1cc(OC)cc(Cc2ccc(F)cc2)c1C [Compound 261, N-ethyl-N′-(3-(4-fluorobenzyl)-5-methoxy-2-methylphenyl)-N-methylformimidamide]
≥ 70%: pest or weed control at 500 ppm (Phakopsora pachyrhizi) | inhibition of growth at 300 ppm [1] | inhibition of growth at 300 ppm (Fusarium culmorum) | inhibition of growth at 300 ppm (Alternaria solani) | inhibition of growth at 300 ppm (Botrytis cinerea) | inhibition of growth at 300 ppm (Rhizoctonia solani) | inhibition of growth at 300 ppm (Pyricularia oryzae)

CCN(C)C=Nc1cc(Cl)cc(N(C)c2ncccn2)c1C [Compound 214, N′-(5-chloro-2-methyl-3-(methyl(pyrimidin-2-yl)amino)phenyl)-N-ethyl-N-methylformimidamide]
≥ 70%: pest or weed control at 500 ppm (Phakopsora pachyrhizi) | inhibition of growth at 300 ppm [1] | inhibition of growth at 300 ppm (Fusarium culmorum) | inhibition of growth at 300 ppm (Alternaria solani) | inhibition of growth at 300 ppm (Rhizoctonia solani) | inhibition of growth at 300 ppm (Pyricularia oryzae)

CCN(C)C=Nc1cc(OC)cc(Cc2cccc(OC(F)(F)F)c2)c1C [Compound 305, N-ethyl-N′-(5-methoxy-2-methyl-3-(3-(trifluoromethoxy)benzyl)phenyl)-N-methylformimidamide]
≥ 70%: inhibition of growth at 300 ppm [1] | inhibition of growth at 300 ppm (Fusarium culmorum) | inhibition of growth at 300 ppm (Alternaria solani) | inhibition of growth at 300 ppm (Botrytis cinerea) | inhibition of growth at 300 ppm (Rhizoctonia solani) | inhibition of growth at 300 ppm (Pyricularia oryzae)

CCN(C)C=Nc1cc(OC)cc(Cc2ccccc2Br)c1C [Compound 294, N′-(3-(2-bromobenzyl)-5-methoxy-2-methylphenyl)-N-ethyl-N-methylformimidamide]
≥ 70%: pest or weed control at 500 ppm (Phakopsora pachyrhizi) | inhibition of growth at 300 ppm [1] | inhibition of growth at 300 ppm (Fusarium culmorum) | inhibition of growth at 300 ppm (Alternaria solani) | inhibition of growth at 300 ppm (Botrytis cinerea) | inhibition of growth at 300 ppm (Rhizoctonia solani) | inhibition of growth at 300 ppm (Pyricularia oryzae)

CCN(C)C=Nc1cc(C)cc(Nc2ccc(C)cc2)c1Cl [Compound 1, N′-(2-chloro-5-methyl-3-(p-tolylamino)phenyl)-N-ethyl-N-methylformimidamide]
≥ 70%: inhibition of growth at 300 ppm (Fusarium culmorum) | inhibition of growth at 300 ppm (Alternaria solani) | inhibition of growth at 300 ppm (Rhizoctonia solani) | inhibition of growth at 300 ppm (Colletotrichum capsici) | inhibition of growth at 300 ppm (Pyricularia oryzae)

CCN(C)C=Nc1cc(OC)cc(Cc2ccccc2OC(F)(F)F)c1C [Compound 299, N-ethyl-N′-(5-methoxy-2-methyl-3-(2-(trifluoromethoxy)benzyl)phenyl)-N-methylformimidamide]
≥ 70%: pest or weed control at 500 ppm (Phakopsora pachyrhizi) | inhibition of growth at 300 ppm [1] | inhibition of growth at 300 ppm (Fusarium culmorum) | inhibition of growth at 300 ppm (Alternaria solani) | inhibition of growth at 300 ppm (Botrytis cinerea) | inhibition of growth at 300 ppm (Rhizoctonia solani) | inhibition of growth at 300 ppm (Pyricularia oryzae)

CCN(C)C=Nc1cc(Cl)cc(Nc2cccc(Br)c2)c1C [Compound 164, N′-(3-((3-bromophenyl)amino)-5-chloro-2-methylphenyl)-N-ethyl-N-methylformimidamide]
≥ 70%: inhibition of growth at 300 ppm [1] | inhibition of growth at 300 ppm (Fusarium culmorum) | inhibition of growth at 300 ppm (Alternaria solani) | inhibition of growth at 300 ppm (Botrytis cinerea) | inhibition of growth at 300 ppm (Rhizoctonia solani) | inhibition of growth at 300 ppm (Pyricularia oryzae)

CCN(C)C=Nc1cc(OC)cc(Cc2ccc(F)c(F)c2)c1C [Compound 286, N′-(3-(3,4-difluorobenzyl)-5-methoxy-2-methylphenyl)-N-ethyl-N-methylformimidamide]
≥ 70%: pest or weed control at 500 ppm (Phakopsora pachyrhizi) | inhibition of growth at 300 ppm [1] | inhibition of growth at 300 ppm (Fusarium culmorum) | inhibition of growth at 300 ppm (Alternaria solani) | inhibition of growth at 300 ppm (Botrytis cinerea) | inhibition of growth at 300 ppm (Rhizoctonia solani) | inhibition of growth at 300 ppm (Pyricularia oryzae)

CCN(C)C=Nc1cc(OC)cc(N(C)c2ccc(OC)c(F)c2)c1C [Compound 271, N-ethyl-N′-(3-((3-fluoro-4-methoxyphenyl)(methyl)amino)-5-methoxy-2-methylphenyl)-N-methylformimidamide]
≥ 70%: inhibition of growth at 300 ppm [1] | inhibition of growth at 300 ppm (Fusarium culmorum) | inhibition of growth at 300 ppm (Alternaria solani) | inhibition of growth at 300 ppm (Pyricularia oryzae)

CCN(C)C=Nc1cc(OC)cc(Cc2cc(F)ccc2Cl)c1C [Compound 293, N′-(3-(2-chloro-5-fluorobenzyl)-5-methoxy-2-methylphenyl)-N-ethyl-N-methylformimidamide]
≥ 70%: inhibition of growth at 300 ppm [1] | inhibition of growth at 300 ppm (Fusarium culmorum) | inhibition of growth at 300 ppm (Alternaria solani) | inhibition of growth at 300 ppm (Botrytis cinerea) | inhibition of growth at 300 ppm (Rhizoctonia solani) | inhibition of growth at 300 ppm (Pyricularia oryzae)

CCN(C)C=Nc1cc(OC)cc(Cc2ccccc2F)c1C [Compound 266, N-ethyl-N′-(3-(2-fluorobenzyl)-5-methoxy-2-methylphenyl)-N-methylformimidamide]
≥ 70%: pest or weed control at 500 ppm (Phakopsora pachyrhizi) | inhibition of growth at 300 ppm [1] | inhibition of growth at 300 ppm (Fusarium culmorum) | inhibition of growth at 300 ppm (Alternaria solani) | inhibition of growth at 300 ppm (Rhizoctonia solani) | inhibition of growth at 300 ppm (Pyricularia oryzae)

CCN(C)C=Nc1cc(OC)cc(Cc2ccccc2Cl)c1C [Compound 265, N′-(3-(2-chlorobenzyl)-5-methoxy-2-methylphenyl)-N-ethyl-N-methylformimidamide]
≥ 70%: inhibition of growth at 300 ppm [1] | inhibition of growth at 300 ppm (Fusarium culmorum) | inhibition of growth at 300 ppm (Alternaria solani) | inhibition of growth at 300 ppm (Botrytis cinerea) | inhibition of growth at 300 ppm (Rhizoctonia solani) | inhibition of growth at 300 ppm (Pyricularia oryzae)

CCN(C)C=Nc1cc(F)cc(Cc2ccc(C(F)(F)F)cc2)c1C [Compound 188, N-ethyl-N′-(5-fluoro-2-methyl-3-(4-(trifluoromethyl)benzyl)phenyl)-N-methylformimidamide]
≥ 70%: pest or weed control at 500 ppm (Phakopsora pachyrhizi) | inhibition of growth at 300 ppm [1] | inhibition of growth at 300 ppm (Fusarium culmorum) | inhibition of growth at 300 ppm (Alternaria solani) | inhibition of growth at 300 ppm (Botrytis cinerea) | inhibition of growth at 300 ppm (Rhizoctonia solani) | inhibition of growth at 300 ppm (Pyricularia oryzae)
